From article PMC8125234, “Cardiolipin Stabilizes and Increases Catalytic Efficiency of Carnitine Palmitoyltransferase II and Its Variants S113L, P50H, and Y479F” (International Journal of Molecular Sciences, 2021)
Substitutions are numbered along the chain they refer to. Where two headings read alike, the source gives them in different places. Values belong to the compound of their own block, whether it stands above or below them.

Assays:
Format in all cases: biochemical
CPT II WT [1] = target: T1, CPT II WT (Homo sapiens, UniProt P23786); test: Determination of inhibition constant Ki for R-amino carnitine (DTNB enzyme activity assay); details: 25 °C
T1 construct: made in house; host or cells: Escherichia coli BL21Gold DE
T1 sequence (P23786 26-658): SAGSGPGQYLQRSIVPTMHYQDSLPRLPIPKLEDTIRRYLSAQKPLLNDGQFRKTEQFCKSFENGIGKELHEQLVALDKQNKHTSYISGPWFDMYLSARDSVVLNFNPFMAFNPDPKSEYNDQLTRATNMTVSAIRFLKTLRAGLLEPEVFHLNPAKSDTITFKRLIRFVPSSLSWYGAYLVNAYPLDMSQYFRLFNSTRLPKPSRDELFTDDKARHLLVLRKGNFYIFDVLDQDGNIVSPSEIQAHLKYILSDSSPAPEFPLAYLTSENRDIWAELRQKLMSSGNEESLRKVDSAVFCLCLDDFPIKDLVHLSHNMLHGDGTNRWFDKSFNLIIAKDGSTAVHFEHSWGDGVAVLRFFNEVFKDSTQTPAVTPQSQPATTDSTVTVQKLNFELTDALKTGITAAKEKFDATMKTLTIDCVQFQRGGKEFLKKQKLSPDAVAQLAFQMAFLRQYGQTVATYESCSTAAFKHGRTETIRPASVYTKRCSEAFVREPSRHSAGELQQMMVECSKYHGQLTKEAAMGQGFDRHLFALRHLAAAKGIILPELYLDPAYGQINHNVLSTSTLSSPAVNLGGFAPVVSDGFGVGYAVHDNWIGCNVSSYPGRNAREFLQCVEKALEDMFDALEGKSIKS
Experimental: (§1) Before activity measurements, the storage buffer of the enzymes was replaced with assay buffer (50 mM KH2PO4, 120 mM KCl, 1 mM EDTA-Na4) using vivaspin turbo 4 tubes (Satorius Stedim biotech GmbH, Göttingen, Germany) at 4 °C. The pH of assay buffer was adjusted with KOH to 7.4. The storage buffer was diluted at least 1:500 in assay buffer. In addition, before each experimental set up, the protein samples were centrifuged at 16,000× g for 5 min at 4 °C to remove any micro-aggregates. After that, the protein concentration was determined using bicinchoninic acid (BCA) protein assay kit (Thermo Fisher Scientific GmbH, Berlin, Germany). The enzyme activity of recombinant CPT II was performed following Rufer et al. with modifications described elsewhere. […] After pre-conditioning the mixture to 25 °C for 2 min, the reaction was started by adding 15 nM of recombinant enzyme. The reverse reaction of CPT II was detected with the enzyme activity assay. CPT II catalyzed the transfer of fatty acid residue from Pal-CoA to L-carnitine with release of CoA and Pal-carnitine. The released CoA was then detected by the reaction of the free thiol group with DTNB, forming 5-mercapto-(2-nitrobenzoic acid). This compound has a molar extinction coefficient of 13,600 M^−1 cm^−1 at a wavelength of 410 nm, and its formation was followed spectroscopically. […] The slope of the progress curve was used to determine the reaction velocity.
(§2) The inhibition constant Ki for the competitive inhibitor R-amino carnitine was determined using various concentrations (R-AC, 0, 0.25 and 0.5 mM). A concentration series of L-carnitine in the enzyme assay was used (0–200 mM) while the concentration of Pal-CoA remained constant at 30 µM. Experiments were performed at least three times independently as double determination.
(§3) The values for Ki were calculated on the basis of the obtained KM values, the Michaelis–Menten constant of the inhibited reaction KMi and the inhibitor concentration using the following equation [45]:(3) KMi=(1+[I]/ Ki)KM (4) Ki=KM·[I]/KMi−KM

CPT II variant P50H [2] = target: T2, CPT II variant P50H (Homo sapiens, UniProt P23786, P50H); test: as above; details: 25 °C
T2 construct: made in house; host or cells: Escherichia coli BL21Gold DE
T2 sequence (P23786 26-658 P50H): T1 sequence (P23786 26-658) with P25H
Experimental: as §1, §2, §3

CPT II variant S113L [3] = target: T3, CPT II variant S113L (Homo sapiens, UniProt P23786, S113L); test: as above; details: 25 °C
T3 construct: made in house; host or cells: Escherichia coli BL21Gold DE
T3 sequence (P23786 26-658 S113L): T1 sequence (P23786 26-658) with S88L
Experimental: as §1, §2, §3

CPT II variant Y479F [4] = target: T4, CPT II variant Y479F (Homo sapiens, UniProt P23786, Y479F); test: as above; details: 25 °C
T4 construct: made in house; host or cells: Escherichia coli BL21Gold DE
T4 sequence (P23786 26-658 Y479F): T1 sequence (P23786 26-658) with Y454F
Experimental: as §1, §2, §3

CPT II WT [5] = target: T1, CPT II WT; test: Determination of the kinetic parameters kcat and KM; details: palmitoyl-CoA varied, 25 °C
Experimental: as §1
(§4) It is assumed that the reaction catalyzed by CPT II represents a ping-pong mechanism or compulsory order ternary-complex mechanism.
(§5) The kinetic parameters were determined by evaluating the obtained v/S characteristic according to the Michaelis–Menten Equation (1). The […] kcat was calculated using Equation (2):(1) v=Vmax∗[S]/KM+[S] (2) kcat=Vmax/cenzyme

CPT II variant P50H [6] = target: T2, CPT II variant P50H; test: as above; details: palmitoyl-CoA varied, 25 °C
Experimental: as §1, §4, §5

CPT II variant S113L [7] = target: T3, CPT II variant S113L; test: as above; details: palmitoyl-CoA varied, 25 °C
Experimental: as §1, §4, §5

CPT II variant Y479F [8] = target: T4, CPT II variant Y479F; test: as above; details: palmitoyl-CoA varied, 25 °C
Experimental: as §1, §4, §5

[9] = 0.25 mM CL, read-out: Inhibition Constant Ki in Presence of CL
[10] = absence of CL, read-out: Inhibition Constant Ki in Absence of CL

Compound: C[N+](C)(C)C[C@H](N)CC(=O)[O-] [R-amino carnitine, R-Aminocarnitine]
Ki (CPT II WT [1]; [9]): 105 ± 2 µM
Ki (CPT II WT [1]; [10]): 493 ± 4 µM
Ki (CPT II variant P50H [2]; [9]): 46 ± 6 µM
Ki (CPT II variant P50H [2]; [10]): 134 ± 11 µM
Ki (CPT II variant S113L [3]; [9]): 36 ± 16 µM
Ki (CPT II variant S113L [3]; [10]): 173 ± 20 µM
Ki (CPT II variant Y479F [4]; [9]): 108 ± 39 µM
Ki (CPT II variant Y479F [4]; [10]): 756 ± 62 µM

Km (CPT II WT [5]; 0.25 mM CL): 6.7 ± 1.1 µM
kcat (CPT II WT [5]; 0.25 mM CL): 145.3 ± 9.0 s⁻¹
Km (CPT II WT [5]; absence of CL): 7.1 ± 1.1 µM
kcat (CPT II WT [5]; absence of CL): 144.7 ± 3.1 s⁻¹
Km (CPT II variant P50H [6]; 0.25 mM CL): 6.7 ± 1.8 µM
kcat (CPT II variant P50H [6]; 0.25 mM CL): 138.2 ± 8.4 s⁻¹
Km (CPT II variant P50H [6]; absence of CL): 5.5 ± 1.4 µM
kcat (CPT II variant P50H [6]; absence of CL): 144.3 ± 18 s⁻¹
Km (CPT II variant S113L [7]; 0.25 mM CL): 12.3 ± 3 µM
kcat (CPT II variant S113L [7]; 0.25 mM CL): 145.8 ± 0.9 s⁻¹
Km (CPT II variant S113L [7]; absence of CL): 11 ± 3.6 µM
kcat (CPT II variant S113L [7]; absence of CL): 142.1 ± 25 s⁻¹
Km (CPT II variant Y479F [8]; 0.25 mM CL): 6.7 ± 0.3 µM
kcat (CPT II variant Y479F [8]; 0.25 mM CL): 144.8 ± 13 s⁻¹
Km (CPT II variant Y479F [8]; absence of CL): 5.1 ± 2.3 µM
kcat (CPT II variant Y479F [8]; absence of CL): 141.4 ± 1.7 s⁻¹
Compound: CCCCCCCCCCCCCCCC(=O)SCCNC(=O)CCNC(=O)[C@H](O)C(C)(C)COP(=O)(O)OP(=O)(O)OC[C@H]1O[C@@H](n2cnc3c(N)ncnc32)[C@H](O)[C@@H]1OP(=O)(O)O [palmitoyl-CoA, Palmitoyl-Coenzyme A]
